Results published in US11452764B2, “Inhibiting FAK-AKT interaction to inhibit metastasis” (Board of Trustees of Michigan State University, priority 2017, dated 2022).
“Also recorded” adds a separate entry of the source.

What was measured:
SW620 colon cancer cells = test: Adhesion assay of SW620 cells to collagen I at ambient or 15 mmHg increased pressure (ZINC compounds); type: cell-based, human; conditions: 30 minutes; for Concentration at which pressure stimulated adhesion was blocked / Pressure stimulated adhesion: 15 mmHg; for Pressure stimulated adhesion / Basal adhesion: concentrations studied 10-200 μM (per compound in Table 3); for Basal adhesion: ambient pressure
Method: (§1) Extracellular pressure was increased by 15 mmHg over ambient pressure using a temperature and pressure-controlled box as described by Basson et al. (J Cell Biochem, 78: 47-61 (2000)).
Cells were seeded in an amount of 50,000 cells/well into 24 well plates precoated with collagen I (Sigma, St. Louis, Mo., USA) at 37° C. under ambient or 15 mmHg increased pressure as described by Basson et al. J Cell Biochem 78: 47-61 (2000)). After 30 minutes, non-adherent cells were washed away. Adherent cells were stained with MTS (CellTiter 96® AQueous One Solution Cell Proliferation Assay, Madison, Wis., USA) and plates were read at 490 nm.
Seven molecules were studied that structurally mimic AAHPSEE (SEQ ID NO:24), including five analogs of ZINC04085549 (FIG. 16A-16G). These molecules' effects on basal and pressure-stimulated human SW620 colon cancer cell adhesion to collagen I were assayed first. Most molecules had no effect at the concentrations studied (Table 3).

[1] = tested on: FAK-Tyr-397 phosphorylation; test: FAK-Y397 western blotting in suspended SW620 cells at ambient or 15 mmHg increased pressure (ZINC compounds); type: cell-based, human; conditions: 50 μM
Description: as §1
Cells were maintained at ambient or increased pressure in bacteriologic plastic dishes pacificated with heat-inactivated bovine serum albumin to prevent adhesion and avoid adhesion-associated background FAK activation. Cells were lysed in lysis buffer, resolved by 10% SDS-PAGE, transferred to nitrocellulose and blotted with antibody to Tyr-397-phosphorylated FAK (rabbit monoclonal ab81298, Abcam, San Francisco, Calif., USA) and anti-rabbit 680 (LI-COR Inc. Lincoln, Nebr., USA), before quantitation using Kodak Scientific Imaging Systems 1D, V.3.5.4 (Zeng et al., Oncotarget, 8 98051-98067 (2017)). Total FAK (Anti-FAK, clone 4.47 Merck, Darmstadt, Germany with secondary anti-mouse 800, LI-COR Inc. Lincoln, Nebr., USA) served as a loading control. FAK and Tyr-397-phosphorylated FAK western blots yielded doublets similar to those previously observed by others (McConnell et al. Mol Cancer 10: 75 (2011); Aflaki et al. Cell Mol Life Sci, 68: 3933-3947 (2011)); Das et al. Cancer Res, 72: 6217-6226 (2012); Ammoun et al. Oncogene, 31: 1710-1722 (2012)). Both bands were quantitated together.
Four structurally similar molecules to the FAK-derived sequence LAHPP (SEQ ID NO:25) (Table 2) were evaluated for their ability to prevent FAK activation by 15 mmHg increased extracellular pressure in human SW620 colon cancer cells. […] The structures of these compounds are shown below (and in FIG. 17).

Akt1 = Akt1 (Homo sapiens, UniProt P31749); conditions: Zeng et al., Oncotarget 2017; cited from earlier work
Chain of Akt1 (P31749 whole entry, species assumed): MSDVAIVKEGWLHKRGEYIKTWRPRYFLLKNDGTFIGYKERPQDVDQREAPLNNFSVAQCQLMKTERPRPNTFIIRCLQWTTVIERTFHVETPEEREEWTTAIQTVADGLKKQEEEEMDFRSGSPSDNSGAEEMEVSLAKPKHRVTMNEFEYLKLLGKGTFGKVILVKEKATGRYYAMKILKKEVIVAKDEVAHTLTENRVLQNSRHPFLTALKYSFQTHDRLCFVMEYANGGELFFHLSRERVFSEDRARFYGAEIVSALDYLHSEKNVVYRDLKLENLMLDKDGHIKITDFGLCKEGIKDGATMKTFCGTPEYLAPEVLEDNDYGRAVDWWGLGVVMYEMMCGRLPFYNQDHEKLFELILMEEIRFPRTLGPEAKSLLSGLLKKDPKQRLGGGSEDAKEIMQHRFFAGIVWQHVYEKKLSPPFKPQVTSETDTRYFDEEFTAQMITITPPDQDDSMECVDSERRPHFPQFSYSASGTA

Compound	Concentration at which pressure stimulated adhesion was blocked (SW620 colon cancer cells)	Pressure stimulated adhesion (SW620 colon cancer cells)	Basal adhesion (SW620 colon cancer cells)	Basal ambient pressure FAK-Tyr-397 phosphorylation ([1]; suspended SW620)	Pressure-stimulated FAK-Tyr-397 phosphorylation ([1]; suspended SW620, 15 mmHg)	Competition with FAK for binding to AKT1 (Akt1)
Cc1ccccc1C(=O)O/N=C1\CCCCC1c1ccc([N+](=O)[O-])cc1[N+](=O)[O-] (stereo not drawn) [ZINC04085549]	≥50 µM	prevented pressure-stimulated increases in SW620 adhesion; also recorded: Blocked	without altering basal adhesiveness at ambient pressure; also recorded: Maintained	without affecting basal ambient pressure FAK-Tyr-397 phosphorylation	prevented pressure-stimulated FAK-Tyr-397 phosphorylation	–
COc1ccc(C(=O)O/N=C2\CCCCC2c2ccc([N+](=O)[O-])cc2[N+](=O)[O-])cc1 (stereo not drawn) [ZINC4085554]	≥50 µM	prevented pressure-stimulated increases in SW620 adhesion; also recorded: Blocked	without altering basal adhesiveness at ambient pressure; also recorded: Maintained	–	–	–
AAHPSEE [two-site mutant of FAK residues 113-119, more helical analog used as screening query]	–	–	–	–	–	effectively compete with FAK for binding to AKT1
